Patent US10513534B2, “2′-chloro nucleoside analogs for HCV infection” (priority 2012, dated 2019)
Read-outs that look alike come from different tables or passages of the source.

Key:
Zluc cells = assay: Cytotoxicity evaluation, CellTiter-Blue Cell Viability Assay; conditions: Zluc cells, CellTiter-Blue
HCV genotype 1b replicon = assay: HCV replicon assay (Zluc luciferase); type: cell-based
Experimental: Huh-7-derived cell line (Zluc) that harbors an HCV genotype 1b replicon and a luciferase reporter gene was grown in Dulbecco's Modified Eagle Medium (DMEM) supplemented with 10% fetal bovine serum, 2 mM GlutaMAX, 1% MEM nonessential amino acids, 100 IU/mL penicillin, 100 μg/mL streptomycin, and 0.5 mg/mL Geneticin® (G418). For dose response testing the cells were seeded in 96-well plates at 7.5×10^3 cells per well in a volume of 50 μL, and incubated at 37° C./5% CO2. Drug solutions were made up freshly in Huh-7 media as 2× stocks. Ten additional 5-fold dilutions were prepared from these stocks in DMEM without G418. At least three hours after Zluc cells were seeded, drug treatment was initiated by adding 50 μL of drug dilutions to the plates in duplicate. Final concentrations of drug ranged from 100 μM to […]. Cells were then incubated at 37° C./5% CO2. Alternatively, compounds were tested at two concentrations (1 μM and 10 μM). […] For this, media was removed from the plates via gentle tapping. Fifty microliters of ONE-glo luciferase assay reagent was added to each well. The plates were shaken gently for 3 min at room temperature and luminescence was measured on a Victor^3 V 1420 multilabel counter (Perkin Elmer) with a 1 second read time using a 700 nm cut-off filter. The EC50 values were calculated from dose response curves from the resulting best-fit equations determined by Microsoft Excel and XLfit 4.1 software. When screening at two fixed concentrations, the results were expressed as % inhibition at 1 μM and 10 μM.

[1] = Liver triphosphate pharmacokinetics after single oral dose in CD-1 mice; type: in vivo; parameters: key: + ≤ 15; 15 < ++ ≤ 50; 50 < +++ ≤ 100; 100 < ++++; BLQ = below limit of quantitation; conditions: single oral dose 10 mg/kg in PEG 200;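 on Ms Liver TP AUC: pmol·h/g liver normalized to a 1 µmol/kg dose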;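 on Ms Liver TP Cmax: pmol/g liver normalized to a 1 µmol/kg dose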
Experimental: Internal standard solution was added to the homogenate followed by neutralization with 20% ammonium hydroxide solution and addition of 500 μL 1% formic acid. The tissue samples were extracted by weak anion exchange solid phase extraction (SPE). Post extraction, the eluates were evaporated under nitrogen, followed by reconstitution before injection onto the LC-MS/MS system.

[2] = Plasma nucleoside pharmacokinetics after single oral dose in CD-1 mice; type: in vivo; conditions: single oral dose 10 mg/kg in PEG 200;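 on Ms Plasma nucleoside AUC: pmol·h/mL plasma normalized to a 1 µmol/kg dose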
Experimental: Plasma samples were analyzed for nucleoside by LC-MS/MS. The internal standard (IS) was either 2′-MeG-D3 or tiapride. For protein precipitation and extraction, each plasma sample (50 μL) was treated with 500 μL of 0.2% formic acid in acetonitrile and 20 μL of the internal standard working solution. After vortexing and centrifugation, 500 μL of the sample extracts were transferred to a new plate, dried under N2 at ˜28° C. and reconstituted with 75 μL of 0.2% FA in water. The extracts were chromatographed on an Aquasil C18 column using a gradient system of 0.2% formic acid in water and acetonitrile. The analytes were detected and quantified by tandem mass spectrometry in positive ion mode on an MDS Sciex API5000 equipped with a Turbo Ionspray® interface. The calibration range was 0.500 (LLOQ) to 200 ng/mL in mouse plasma.

[3] = Zluc cells, 72 hours; read-out: HCV Replicon EC50

| SMILES | CC50 (Zluc cells) [µM] | EC50 (HCV genotype 1b replicon; [3]) [µM] | Ms Liver TP AUC [1] | Ms Liver TP Cmax [1] | Ms Plasma nucleoside AUC [2] | Ms Plasma nucleoside Cmax [2] | EC50 (HCV genotype 1b replicon; read-out: HCV Replicon EC50; Zluc cells, 72 hours) [µM] |
| --- | --- | --- | --- | --- | --- | --- | --- |
| CC(C)OC(=O)C(C)NP(=O)(OCC1OC(n2cnc3c(=O)[nH]c(N)nc32)C(C)(Cl)C1O)Oc1ccccc1 (mixture of isomers) [Compound 21ii Mixture of P-Diastereoisomers] | > 50 | > 10 |  |  |  |  |  |
| CCOc1nc(N)nc2c1ncn2[C@@H]1O[C@H](COP(=O)(N[C@@H](C)C(=O)OC(C)C)Oc2ccccc2)[C@@H](O)[C@@]1(C)Cl (single isomer, unassigned) [Compound 17ii Diastereomer 2] | > 50 | 1 to 10 | BLQ | BLQ |  |  |  |
| CC(C)OC(=O)[C@H](C)NP(=O)(OC[C@H]1O[C@@H](n2cnc3c(=O)[nH]c(N)nc32)[C@](C)(Cl)[C@@H]1O)Oc1ccccc1 (single isomer, unassigned) [Compound 21ii Diastereomer 2] | > 50 | > 10 |  |  |  |  |  |
| CC(C)(CO)C(=O)SCCOP(=O)(NCc1ccccc1)OC[C@H]1O[C@@H](n2ccc(=O)[nH]c2=O)[C@](C)(Cl)[C@@H]1O (single isomer, unassigned) [Compound 54 Diastereomer 1] |  |  | + (+ ≤ 150) | ++ (15 < ++ ≤ 50) | +++ (500 < +++ ≤ 1500) | +++ (50 < +++ ≤ 100) |  |
| CC(C)(CO)C(=O)SCCOP(=O)(NCc1ccccc1)OC[C@H]1O[C@@H](n2ccc(=O)[nH]c2=O)[C@](C)(Cl)[C@@H]1O (single isomer, unassigned) [Compound 54 Single Diastereoisomer] | > 50 | 1 to 10 |  |  |  |  |  |
| CCOC(=O)COP(=O)(OC[C@H]1O[C@@H](n2ccc(=O)[nH]c2=O)[C@](C)(Cl)[C@@H]1O)Oc1ccccc1 (single isomer, unassigned) [Compound 72 Diastereomer 2] |  |  |  |  |  |  | > 10 |
| CC(C)OC(=O)[C@H](C)NP(=O)(OC[C@H]1O[C@@H](n2cc(F)c3c(N)ncnc32)[C@](C)(Cl)[C@@H]1O)Oc1ccccc1 (single isomer, unassigned) [Compound 207ii Diastereomer 2] | > 50 | > 10 |  |  |  |  |  |
| CC(C)OC(=O)[C@H](C)NP1(=O)OC[C@H]2O[C@@H](n3cnc4c(N)ncnc43)[C@](C)(Cl)[C@@H]2O1 (single isomer, unassigned; diastereoisomer 1) [Compound 77ii Diastereoisomer 1] | > 50 | 1 to 10 |  |  |  |  |  |
| CC(COC(=O)C(C)C)NP1(=O)OCC2OC(n3cnc4c(N)ncnc43)C(C)(Cl)C2O1 (single isomer, unassigned; diastereoisomer 1) [Compound 95 Diastereoisomer 1] | > 50 | 0.25 to 1 |  |  |  |  |  |
| CC(C)OC(=O)[C@H](C)NP1(=O)OC[C@H]2O[C@@H](n3cnc4c(N)ncnc43)[C@](C)(Cl)[C@@H]2O1 (single isomer, unassigned; diastereoisomer 2) [Compound 77ii Diastereoisomer 2] | > 50 | 0.25 to 1 |  |  |  |  |  |
| CC(COC(=O)C(C)C)NP1(=O)OCC2OC(n3cnc4c(N)ncnc43)C(C)(Cl)C2O1 (single isomer, unassigned; diastereoisomer 2) [Compound 95 Diastereoisomer 2] | > 50 | 0.25 to 1 |  |  |  |  |  |
| CC(C)OC(=O)[C@H](C)NP1(=O)OC[C@H]2O[C@@H](n3ccc(=O)[nH]c3=O)[C@](C)(Cl)[C@@H]2O1 (single isomer, unassigned; diastereomer 1) [Compound 38ii Diastereomer 1] |  |  | + (+ ≤ 150) | + (+ ≤ 15) | +++ (500 < +++ ≤ 1500) | +++ (50 < +++ ≤ 100) |  |
| CC(C)OC(=O)[C@H](C)NP(=O)(OCCSC(=O)C(C)(C)C)OC[C@H]1O[C@@H](n2ccc(=O)[nH]c2=O)[C@](C)(Cl)[C@@H]1O (single isomer, unassigned; diastereomer 1) [Compound 43ii Diastereomer 1] | > 50 | 0.25 to 1 |  |  |  |  |  |
| CC(C)OC(=O)[C@H](C)NP1(=O)OC[C@H]2O[C@@H](n3cnc4c(N)ncnc43)[C@](C)(Cl)[C@@H]2O1 (single isomer, unassigned; diastereomer 1) [Compound 77ii Diastereomer 1] |  |  | ++++ (1500 < ++++) | ++++ (100 < ++++) | + (+ ≤ 150) | + (+ ≤ 15) |  |
| CC(C)C(=O)OC[C@H](C)NP1(=O)OC[C@H]2O[C@@H](n3cnc4c(N)ncnc43)[C@](C)(Cl)[C@@H]2O1 (single isomer, unassigned; diastereomer 1) [Compound 95i Diastereomer 1] |  |  | + (+ ≤ 150) | + (+ ≤ 15) | + (+ ≤ 150) | + (+ ≤ 15) |  |
| CC(C)OC(=O)[C@@H](C)NP(=O)(OC[C@H]1O[C@@H](n2ccc(=O)[nH]c2=O)[C@](C)(Cl)[C@@H]1O)SC1CCCC1 (single isomer, unassigned; diastereomer 1) [Compound 206i Diastereomer 1] |  |  | +++ (500 < +++ ≤ 1500) | ++++ (100 < ++++) | +++ (500 < +++ ≤ 1500) | +++ (50 < +++ ≤ 100) |  |
| CC(C)OC(=O)[C@H](C)NP1(=O)OC[C@H]2O[C@@H](n3ccc(=O)[nH]c3=O)[C@](C)(Cl)[C@@H]2O1 (single isomer, unassigned; diastereomer 2) [Compound 38ii Diastereomer 2] |  |  | +++ (500 < +++ ≤ 1500) | ++ (15 < ++ ≤ 50) | +++ (500 < +++ ≤ 1500) | ++++ (100 < ++++) |  |
| CC(C)(CO)C(=O)SCCOP(=O)(NCc1ccccc1)OC[C@H]1O[C@@H](n2ccc(=O)[nH]c2=O)[C@](C)(Cl)[C@@H]1O (single isomer, unassigned; diastereomer 2) [Compound 54 Diastereomer 2] |  |  | + (+ ≤ 150) | + (+ ≤ 15) | +++ (500 < +++ ≤ 1500) | ++ (15 < ++ ≤ 50) |  |
| CC(C)OC(=O)[C@H](C)NP1(=O)OC[C@H]2O[C@@H](n3cnc4c(N)ncnc43)[C@](C)(Cl)[C@@H]2O1 (single isomer, unassigned; diastereomer 2) [Compound 77ii Diastereomer 2] |  |  | ++++ (1500 < ++++) | ++++ (100 < ++++) | + (+ ≤ 150) | + (+ ≤ 15) |  |
| CC(C)C(=O)OC[C@H](C)NP1(=O)OC[C@H]2O[C@@H](n3cnc4c(N)ncnc43)[C@](C)(Cl)[C@@H]2O1 (single isomer, unassigned; diastereomer 2) [Compound 95i Diastereomer 2] |  |  | ++ (150 < ++ ≤ 500) | + (+ ≤ 15) | + (+ ≤ 150) | + (+ ≤ 15) |  |
| CC(C)OC(=O)[C@@H](C)NP(=O)(OC[C@H]1O[C@@H](n2ccc(=O)[nH]c2=O)[C@](C)(Cl)[C@@H]1O)SC1CCCC1 (single isomer, unassigned; diastereomer 2) [Compound 206i Diastereomer 2] |  |  | +++ (500 < +++ ≤ 1500) | +++ (50 < +++ ≤ 100) | +++ (500 < +++ ≤ 1500) | +++ (50 < +++ ≤ 100) |  |
